Target: T1, human PDE2A1 (Homo sapiens, UniProt O00408)
T1 construct: GST; purchased BPS Bioscience (San Diego, Calif.) 60020; host or cells: insect cells
Assay: IMAP FP PDE selectivity panel, human PDE2A1
Assay type: biochemical
Settings: Lab B; read-out: Human PDE2 Ki (nM) Lab B
Outline: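 IMAP FP read-out, run at room temperature in parallel with PDE1–11: enzyme at 20% substrate conversion, 50 nM FAM-cAMP containing 1000 nM cGMP, Tris pH 7.2/MgCl2/DTT buffer. Compounds as ten 3-fold dilutions. Reaction 60 min, stopped with binding reagent for 1 h before polarization measurement.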

T1 sequence (O00408 1-920 isoform O00408-2): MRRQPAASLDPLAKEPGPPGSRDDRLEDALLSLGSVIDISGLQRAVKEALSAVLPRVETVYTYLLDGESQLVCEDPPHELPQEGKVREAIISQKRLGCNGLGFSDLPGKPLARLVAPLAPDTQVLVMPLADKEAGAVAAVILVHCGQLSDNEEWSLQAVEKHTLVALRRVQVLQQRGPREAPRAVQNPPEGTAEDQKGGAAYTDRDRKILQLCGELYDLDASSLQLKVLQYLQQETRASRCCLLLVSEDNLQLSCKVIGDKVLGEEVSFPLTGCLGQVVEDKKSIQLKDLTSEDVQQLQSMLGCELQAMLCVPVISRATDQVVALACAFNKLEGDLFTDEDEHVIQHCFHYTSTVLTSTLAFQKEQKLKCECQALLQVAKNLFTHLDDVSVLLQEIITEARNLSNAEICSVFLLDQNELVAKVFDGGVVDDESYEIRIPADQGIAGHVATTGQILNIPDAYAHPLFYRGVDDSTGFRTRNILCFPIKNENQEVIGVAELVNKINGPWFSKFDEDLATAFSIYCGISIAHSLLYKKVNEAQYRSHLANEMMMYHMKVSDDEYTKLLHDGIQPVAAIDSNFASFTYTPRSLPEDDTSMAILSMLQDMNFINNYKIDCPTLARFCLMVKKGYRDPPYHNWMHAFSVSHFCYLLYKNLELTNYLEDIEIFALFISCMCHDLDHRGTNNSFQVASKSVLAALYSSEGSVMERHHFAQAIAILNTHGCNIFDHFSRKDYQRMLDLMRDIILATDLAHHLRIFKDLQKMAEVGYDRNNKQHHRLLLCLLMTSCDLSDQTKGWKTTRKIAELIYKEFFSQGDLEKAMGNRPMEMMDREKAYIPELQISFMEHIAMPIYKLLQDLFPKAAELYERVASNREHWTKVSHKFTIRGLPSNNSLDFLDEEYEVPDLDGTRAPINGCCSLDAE

Compound: Cc1cc(N[C@@H](c2ccc(S(F)(F)(F)(F)F)cc2)C(C)(C)C)n2ncnc2n1 [Example 36, N-{(1R)-2,2-Dimethyl-1-[4-(pentafluoro-λ^6-sulfanyl)phenyl]propyl}-5-methyl [1,2,4]triazolo[1,5-a]pyrimidin-7-amine]
- Ki: 6.3 nM

Compound: CC(C)(O)C(Nc1cc(C(F)(F)F)nc2ncnn12)c1ccc(OC(F)(F)F)c(F)c1 (single isomer, unassigned) [Example 176, (1R or S)-1-[3-Fluoro-4-(trifluoromethoxy)phenyl]-2-methyl-1-{[5-(trifluoromethyl) [1,2,4]triazolo [1,5-a]pyrimidin-7-yl]amino} propan-2-ol]
- Ki: ~1310 nM

Compound: C[C@@H](Nc1cc(CO)nc2ncnn12)c1ccc(C(F)(F)F)c(F)c1 [Example 80, [7-({(1R)-1-[3-Fluoro-4-(trifluoromethyl)phenyl]ethyl}amino)[1,2,4]triazolo[1,5-a]pyrimidin-5-yl]methanol]
- Ki: 387 nM

Compound: CC(C)(N)C(Nc1cc(C(F)(F)F)nc2ncnn12)c1ccc(C(F)(F)F)c(F)c1 (single isomer, unassigned) [Example 253, (R)- or (S)-1-(3-Fluoro-4-(trifluoromethyl)phenyl)-2-methyl-N^1-(5-(trifluoromethyl)-[1,2,4]triazolo [1,5-a]pyrimidin-7-yl) propane-1,2-diamine]
- Ki: 83 nM

Compound: CC(C)(C)c1cc(NC(c2ccc(OC(F)(F)F)cc2F)C(C)(C)O)n2ncnc2n1 (single isomer, unassigned) [Example 148, (1S or R)-1-[(5-tert-butyl[1,2,4]triazolo[1,5-a]pyrimidin-7-yl)amino]-1-[2-fluoro-4-(trifluoro-methoxy)phenyl]-2-methylpropan-2-ol]
- Ki: > 2960 nM

Compound: Cc1cc(NC(c2ccc(-c3ccccc3)cc2)C(C)(C)O)n2ncnc2n1 (single isomer, unassigned) [Example 126, (1S or R)-1-Biphenyl-4-yl-2-methyl-1-[(5-methyl[1,2,4]triazolo[1,5-a]pyrimidin-7-yl)amino]propan-2-ol]
- Ki: > 2960 nM

Compound: Fc1cc(C2(Nc3cc(Cl)nc4ncnn34)CC2)ccc1C(F)(F)F [Example 208, 5-Chloro-N-(1-(3-fluoro-4-(trifluoromethyl)phenyl)cyclopropyl)-[1,2,4]triazolo [1,5-a]pyrimidin-7-amine]
- Ki: 2.7 nM

Compound: COCc1cc(NC2(c3ccc(C(F)(F)F)c(F)c3)CC2)n2ncnc2n1 [Example 75, N-{1-[3-Fluoro-4-(trifluoromethyl)phenyl]cyclopropyl}-5-(methoxymethyl) [1,2,4]triazolo[1,5-a]pyrimidin-7-amine]
- Ki: 201 nM

Compound: C[C@H](Nc1cncc2ncnn12)c1ccc(C(F)(F)F)cc1 [Example 289]
- Ki: > 2960 nM

Compound: CC(C)(O)C(Nc1cc(C(F)(F)F)nc2ncnn12)c1ccc(C(F)(F)F)cc1Cl (single isomer, unassigned) [Example 160, (1R or S)-1-[2-chloro-4-(trifluoromethyl)phenyl]-2-methyl-1-{[5-(trifluoromethyl)[1,2,4]triazolo[1,5-a]pyrimidin-7-yl]amino}propan-2-ol]
- Ki: 81 nM

Compound: Cc1cc(NC(c2ccc(OC(F)(F)F)c(F)c2)C(C)(C)O)n2nc(C)nc2n1 (single isomer, unassigned) [Example 133, (1R or S)-1-[(2,5-Dimethyl[1,2,4]triazolo[1,5-a]pyrimidin-7-yl)amino]-1-[3-fluoro-4-(tri-fluoromethoxy)phenyl]-2-methylpropan-2-ol]
- Ki: 18 nM

Compound: CC(C)(O)[C@H](Nc1cc(C(F)F)cc2ncnn12)c1ccc(S(F)(F)(F)(F)F)cc1 [Example 283, (1R)-1-{[7-(Difluoromethyl) [1,2,4]triazolo[1,5-a]pyridin-5-yl]amino}-2-methyl-1-[4-(pentafluoro-λ^6-sulfanyl)phenyl]propan-2-ol]
- Ki: 498 nM

Compound: Fc1cc(C2(Nc3cc(C4CC4)nc4ncnn34)CC2)ccc1C(F)(F)F [Example 70, 5-Cyclopropyl-N-{1-[3-fluoro-4-(trifluoromethyl)phenyl]cyclopropyl}[1,2,4]triazolo[1,5-a]pyrimidin-7-amine]
- Ki: 3.7 nM

Compound: Cc1cc(N[C@H](C)c2ccc(C(C)C)cc2)n2ncnc2n1 [Example 13, 5-Methyl-N-{(1R)-1-[4-(1-methylethyl)phenyl]ethyl}[1,2,4] triazolo[1,5-a]pyrimidin-7-amine]
- Ki: 122 nM

Compound: Cc1cc(NC2(c3ccc(C(F)(F)F)c(F)c3)CC2)n2nc(C3CC3)nc2n1 [Example 195, 2-Cyclopropyl-N-(1-(3-fluoro-4-(trifluoromethyl)phenyl)cyclopropyl)-5-methyl-[1,2,4]triazolo [1,5-a]pyrimidin-7-amine]
- Ki: 144 nM

Compound: Cc1cc(N[C@@H](c2ccc(C(F)(F)F)cc2)C(C)C)n2ncnc2n1 [Example 19, 5-Methyl-N-{(1R)-2-methyl-1-[4-(trifluoromethyl)phenyl]propyl} [1,2,4]triazolo[1,5-a]pyrimidin-7-amine]
- Ki: 36 nM

Compound: CC(C)(O)C(Nc1cc(C(F)(F)F)nc2ncnn12)c1ccc(CC(F)(F)F)cc1 (single isomer, unassigned) [Example 169, (1S or R)-2-Methyl-1-[4-(2,2,2-trifluoroethyl)phenyl]-1-{[5-(trifluoromethyl) [1,2,4]triazolo [1,5-a]pyrimidin-7-yl]amino} propan-2-ol]
- Ki: 50 nM

Compound: COCc1cc(N[C@@H](c2ccc(C(F)(F)F)c(F)c2)C(C)(C)C)n2ncnc2n1 [Example 76, N-{(1R)-1-[3-Fluoro-4-(trifluoromethyl)phenyl]-2,2-dimethylpropyl}-5-(methoxymethyl)[1,2,4]triazolo [1,5-a]pyrimidin-7-amine]
- Ki: 969 nM

Compound: CC(C)(O)C(Nc1cc(C(F)(F)F)nc2ncnn12)c1ccc(OC(F)(F)F)cc1F (single isomer, unassigned) [Example 172, (1R or S)-1-[2-Fluoro-4-(trifluoromethoxy)phenyl]-2-methyl-1-{[5-(trifluoromethyl) [1,2,4]triazolo [1,5-a]pyrimidin-7-yl]amino} propan-2-ol]
- Ki: 25 nM

Compound: CC(C)(C)c1cc(NC(c2ccc(C(F)(F)F)cc2)C(C)(C)O)n2ncnc2n1 (stereo in doubt) [Example 158, (1S)-1-[(5-tert-Butyl[1,2,4]triazolo[1,5-a]pyrimidin-7-yl)amino]-2-methyl-1-[4-(trifluoromethyl)phenyl]propan-2-ol]
- Ki: ~2340 nM

Compound: Cc1cc(NC(c2ccc3ccccc3c2)C(C)(C)O)n2ncnc2n1 (single isomer, unassigned) [Example 122, (1S or R)-2-Methyl-1-[(5-methyl [1,2,4]triazolo [1,5-a]pyrimidin-7-yl)amino]-1-naphthalen-2-yl propan-2-ol]
- Ki: > 2960 nM

Compound: Cc1cc(N[C@@H](c2ccc(OC(F)(F)F)cc2F)C(C)(C)O)n2ncnc2n1 [Example 93, (1S)-1-[2-Fluoro-4-(trifluoromethoxy)phenyl]-2-methyl-[(5-methyl-[1,2,4]triazolo[1,5-a]pyrimidin-7-yl)amino]propan-2-ol]
- Ki: 742 nM

Compound: Cc1cc(N[C@H](c2ccc(C(F)(F)F)c(F)c2)C(C)(C)O)n2ncnc2n1 [Example 99, (1R)-1-[3-Fluoro-4-(trifluoromethyl)phenyl]-2-methyl-1-[(5-methyl [1,2,4]triazolo[1,5-a]pyrimidin-7-yl)amino]propan-2-ol]
- Ki: 555 nM

Compound: CC(C)(C)[C@@H](Nc1cc(N)nc2ncnn12)c1ccc(C(F)(F)F)c(F)c1 [Example 240, (R)-N^7-(1-(3-Fluoro-4-(trifluoromethyl)phenyl)-2,2-dimethylpropyl)-[1,2,4]triazolo [1,5-a]pyrimidine-5,7-diamine]
- Ki: 108 nM

Compound: Cc1cc(NC(C)(C)c2ccc(C(F)(F)F)cc2C)n2ncnc2n1 [Example 54, 5-Methyl-N-{1-methyl-1-[2-methyl-4-(trifluoromethyl)phenyl]ethyl}[1,2,4]triazolo[1,5-a] pyrimidin-7-amine]
- Ki: 342 nM

Compound: Cc1cc(N(C)C(c2ccc(OC(F)(F)F)c(F)c2)C(C)(C)O)n2ncnc2n1 (single isomer, unassigned) [Example 248, (S)- or (R)-1-(3-Fluoro-4-(trifluoromethoxy)phenyl)-2-methyl-1-(methyl(5-methyl-[1,2,4]triazolo [1,5-a]pyrimidine-7-yl)amino) propan-2-ol]
- Ki: > 2960 nM

Compound: Cc1cc(N[C@H](C)c2ccc(OC(F)(F)F)cc2)n2ncnc2n1 [Example 7, 5-Methyl-N-{(1R)-1-[4-(trifluoromethoxy)phenyl]ethyl} [1,2,4]triazolo[1,5-a]pyrimidin-7-amine]
- Ki: 132 nM

Compound: Cc1cc(NC(C)(C)c2ccc(C(F)(F)F)c(F)c2)n2ncnc2n1 [Example 46, N-{1-[3-Fluoro-4-(trifluoromethyl)phenyl]-1-methylethyl}-5-methyl [1,2,4]triazolo[1,5-a]pyrimidin-7-amine]
- Ki: 48 nM

Compound: Cc1cc(N[C@@](C)(c2ccc(OC(F)(F)F)cc2)C(C)(C)O)n2ncnc2n1 [Example 155, (3S)-2-Methyl-3-[(5-methyl[1,2,4]triazolo[1,5-a]pyrimidin-7-yl)amino]-3-[4-(trifluoromethoxy)phenyl]butan-2-ol]
- Ki: 525 nM

Compound: CC(C)(C)c1cc(NC(c2ccc(OC(F)(F)F)c(F)c2)C(C)(C)O)n2ncnc2n1 (single isomer, unassigned) [Example 147, (1R or S)-1-[(5-tert-Butyl[1,2,4]triazolo[1,5-a]pyrimidin-7-yl)amino]-1-[3-fluoro-4-(trifluoro-methoxy)phenyl]-2-methylpropan-2-ol]
- Ki: > 2960 nM

Compound: CC1(c2ccc(C(Nc3cc(C(F)(F)F)nc4ncnn34)C(C)(C)O)cc2)CC1 (single isomer, unassigned) [Example 179, (1S or R)-2-Methyl-1-[4-(1-methylcyclopropyl)phenyl]-1-{[5-(trifluoromethyl) [1,2,4]triazolo [1,5-a]pyrimidin-7-yl]amino} propan-2-ol]
- Ki: > 2960 nM

Compound: Cc1cc(NC2(c3ccc(OC(F)(F)F)c(F)c3)CC2)n2ncnc2n1 [Example 60, N-{1-[3-Fluoro-4-(trifluoromethoxy)phenyl]cyclopropyl}5-methyl-[1,2,4]triazolo[1,5-a]pyrimidin-7-amine]
- Ki: 32 nM
